Earlier results as cited in US9169190B2, “Methods for making retinoids and uses thereof” (The UAB Research Foundation, priority 2004, dated 2015).

Legend:
[1] = test system: MNU-induced mammary cancers; settings: added to the diet of rats
[2] = test system: mammary cancers; settings: compared with 9cRA
[3] = test system: juvenile myelomonocytic leukemia (JMML); settings: children with JMML
[4] = test system: acute promyelocytic leukemia (APL); settings: patients with APL

In the case of `CC1=C(/C=C/C(C)=C\C=C\C(C)=C\C(=O)O)C(C)(C)CCC1` [9cRA], the “reduction of the number of MNU-induced mammary cancers” value [1] is given as 92%.

For `CC(=C/C=C/C(C)=C/C(=O)O)/C=C1\CCCc2ccccc21` [9cUAB30], the “chemopreventive efficacy of mammary cancers relative to 9cRA” value [2] is given as “comparable” and the “toxicity relative to 9cRA” value [2] is given as “less toxic”.

In the case of `CC1=C(/C=C/C(C)=C/C=C/C(C)=C\C(=O)O)C(C)(C)CCC1` [(13Z)-RA], the “children in whom excessive myeloproliferation is effectively controlled” value [3] is listed as “up to 50%”.

For `CC1=C(/C=C/C(C)=C/C=C/C(C)=C/C(=O)O)C(C)(C)CCC1` [(all-E)-RA, All-trans-retinoic acid], the complete remission rate [4] is given as 90%.
